Each block holds one compound with its values, some of them ahead of it.
Key:
[1] = target: T1, Dual specificity tyrosine-phosphorylation-regulated kinase 1A (Homo sapiens, UniProt Q13627); experiment: Inhibition of DYRK1A (unknown origin)
[2] = target: T1, Dual specificity tyrosine-phosphorylation-regulated kinase 1A; experiment: Binding affinity to DYRK1A (unknown origin) assessed as inhibition constant
[3] = target: T1, Dual specificity tyrosine-phosphorylation-regulated kinase 1A; experiment: Inhibition of DYRK1A (unknown origin) autophosphorylation
[4] = target: Dual specificity tyrosine-phosphorylation-regulated kinase 1B (Homo sapiens, UniProt Q9Y463); experiment: Inhibition of DYRK1B (unknown origin)
[5] = target: T1, Dual specificity tyrosine-phosphorylation-regulated kinase 1A; experiment: Inhibition of DYRK1A (unknown origin) in presence of ATP
[6] = system: CCN1/C(=C/C(C)=O)Sc2ccc(O)cc21; experiment: Competitive inhibition of DYRK1A (unknown origin) assessed as michaelis-constant (Km); conditions: Homo sapiens
Acetylcholinesterase = Acetylcholinesterase (Homo sapiens, UniProt P22303); experiment: Inhibition of AChE (unknown origin)
[7] = target: T2, Dual specificity tyrosine-phosphorylation-regulated kinase 2 (Homo sapiens, UniProt Q92630); experiment: Inhibition of DYRK2 (unknown origin)
T2 sequence (Q92630 whole entry): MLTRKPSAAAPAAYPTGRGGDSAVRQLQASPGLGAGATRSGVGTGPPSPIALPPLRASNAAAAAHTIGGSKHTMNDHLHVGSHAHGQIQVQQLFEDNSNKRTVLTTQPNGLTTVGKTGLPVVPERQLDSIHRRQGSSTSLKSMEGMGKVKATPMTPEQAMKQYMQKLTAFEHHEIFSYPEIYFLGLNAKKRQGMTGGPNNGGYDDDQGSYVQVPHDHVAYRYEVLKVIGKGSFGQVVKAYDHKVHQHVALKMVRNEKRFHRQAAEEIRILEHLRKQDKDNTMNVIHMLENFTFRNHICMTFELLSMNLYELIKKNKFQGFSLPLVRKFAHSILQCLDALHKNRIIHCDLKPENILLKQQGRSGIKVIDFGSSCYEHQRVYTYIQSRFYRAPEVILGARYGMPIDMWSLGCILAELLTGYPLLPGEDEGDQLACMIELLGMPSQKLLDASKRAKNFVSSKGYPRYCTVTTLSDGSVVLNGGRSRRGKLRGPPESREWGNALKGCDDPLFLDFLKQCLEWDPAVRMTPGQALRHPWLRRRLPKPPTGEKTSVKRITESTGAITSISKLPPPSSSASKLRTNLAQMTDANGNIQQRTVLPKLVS

[8] = target: T3, Dual specificity tyrosine-phosphorylation-regulated kinase 2 (Homo sapiens) (UniProt Q92630); experiment: Inhibition of DYRK2 (unknown origin) at 10 uM relative to control
T3 sequence (whole entry): T2 sequence (Q92630 whole entry)

[9] = target: T4, Dual specificity tyrosine-phosphorylation-regulated kinase 3 (Homo sapiens) (UniProt O43781); experiment: Inhibition of DYRK3 (unknown origin) at 10 uM relative to control
T4 sequence (whole entry): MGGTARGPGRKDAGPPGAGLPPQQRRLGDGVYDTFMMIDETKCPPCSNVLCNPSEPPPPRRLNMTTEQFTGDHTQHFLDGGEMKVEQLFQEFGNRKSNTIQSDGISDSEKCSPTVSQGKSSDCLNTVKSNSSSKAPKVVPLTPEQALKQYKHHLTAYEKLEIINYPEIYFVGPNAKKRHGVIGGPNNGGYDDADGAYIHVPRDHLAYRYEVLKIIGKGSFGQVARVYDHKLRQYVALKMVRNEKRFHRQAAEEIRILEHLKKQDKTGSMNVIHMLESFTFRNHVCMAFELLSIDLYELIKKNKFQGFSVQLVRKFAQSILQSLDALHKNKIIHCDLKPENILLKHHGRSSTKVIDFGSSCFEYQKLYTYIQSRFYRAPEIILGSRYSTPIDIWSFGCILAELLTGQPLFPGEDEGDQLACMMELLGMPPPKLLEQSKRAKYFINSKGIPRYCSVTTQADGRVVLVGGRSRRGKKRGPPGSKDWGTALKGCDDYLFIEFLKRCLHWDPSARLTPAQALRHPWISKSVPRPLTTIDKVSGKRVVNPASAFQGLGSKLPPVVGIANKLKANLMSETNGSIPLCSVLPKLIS

Sequence of Dual specificity tyrosine-phosphorylation-regulated kinase 1B (Q9Y463 whole entry): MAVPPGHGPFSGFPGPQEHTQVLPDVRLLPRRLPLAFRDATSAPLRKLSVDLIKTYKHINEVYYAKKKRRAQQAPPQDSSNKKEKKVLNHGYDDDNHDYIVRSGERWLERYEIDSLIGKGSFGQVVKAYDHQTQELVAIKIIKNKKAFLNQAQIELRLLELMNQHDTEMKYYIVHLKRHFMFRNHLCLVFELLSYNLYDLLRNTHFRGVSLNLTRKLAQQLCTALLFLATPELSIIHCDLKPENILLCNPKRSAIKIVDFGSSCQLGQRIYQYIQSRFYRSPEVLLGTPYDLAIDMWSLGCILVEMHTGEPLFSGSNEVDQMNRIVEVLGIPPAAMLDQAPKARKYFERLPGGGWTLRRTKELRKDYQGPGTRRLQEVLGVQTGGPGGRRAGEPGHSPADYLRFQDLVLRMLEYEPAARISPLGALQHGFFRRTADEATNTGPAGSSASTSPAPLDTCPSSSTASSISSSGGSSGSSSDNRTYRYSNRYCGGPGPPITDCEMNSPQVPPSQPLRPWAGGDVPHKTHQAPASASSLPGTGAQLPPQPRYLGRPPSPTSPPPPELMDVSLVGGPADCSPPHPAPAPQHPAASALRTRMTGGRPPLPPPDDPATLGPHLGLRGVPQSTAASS
Sequence of Acetylcholinesterase (P22303 whole entry): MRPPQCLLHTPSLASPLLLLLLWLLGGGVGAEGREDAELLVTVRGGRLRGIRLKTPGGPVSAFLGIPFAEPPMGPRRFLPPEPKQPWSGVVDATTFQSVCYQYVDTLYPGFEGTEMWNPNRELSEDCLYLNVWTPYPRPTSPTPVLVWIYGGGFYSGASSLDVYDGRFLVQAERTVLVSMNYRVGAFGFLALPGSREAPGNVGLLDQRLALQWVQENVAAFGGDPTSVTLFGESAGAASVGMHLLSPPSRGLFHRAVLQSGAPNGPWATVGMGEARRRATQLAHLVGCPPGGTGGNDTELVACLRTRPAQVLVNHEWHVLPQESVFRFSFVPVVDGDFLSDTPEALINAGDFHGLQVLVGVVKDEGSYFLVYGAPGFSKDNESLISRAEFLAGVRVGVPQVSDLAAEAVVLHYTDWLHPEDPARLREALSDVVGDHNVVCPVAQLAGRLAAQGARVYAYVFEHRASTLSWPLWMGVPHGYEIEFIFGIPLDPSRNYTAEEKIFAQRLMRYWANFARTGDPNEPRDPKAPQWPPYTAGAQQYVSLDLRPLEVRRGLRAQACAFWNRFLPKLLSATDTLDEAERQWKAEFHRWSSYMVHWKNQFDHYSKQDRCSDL

Compound: CCC(=O)O[C@@H](C/C=C(\C)C(=O)OC)[C@H](C(=O)OC)[C@@H](OC(C)=O)[C@@H](C[C@H](C)[C@H](OC(=O)CC(C)C)[C@@H]1C[C@H](C)C[C@]2(C[C@H](C)C[C@@](O)(CC(C)=O)O2)O1)OC(=O)CC(C)C
IC50 [1]: > 10000 nM

Compound: COC(=N)c1nc2ccc3ncnc(Nc4ccc(Cl)cc4Cl)c3c2s1
IC50 [4]: 280 nM

Compound: CO[C@H]1[C@H](O)[C@@H](O)[C@H](n2c3c(Cl)cccc3c3c4c(c5c6cccc(Cl)c6[nH]c5c32)C(=O)NC4=O)O[C@@H]1CO [REBECCAMYCIN]
IC50 [1]: 19 nM

Compound: Cc1cc(=O)oc2cc3cc(O)ccc3cc12
IC50 [5]: 600 nM

Compound: Dual specificity tyrosine-phosphorylation-regulated kinase 1A (Homo sapiens) (from UniProt Q13627)
Km [6]: 37 µM

Compound: CCC(=O)O[C@@H](C/C=C(\C)C(=O)OC)[C@H](C(=O)OC)[C@@H](OC(C)=O)[C@@H](C[C@H](C)[C@H](OC(=O)CC(C)C)[C@@H]1C[C@H](C)C[C@]2(C[C@H](C)C[C@](CC(C)=O)(OC(C)=O)O2)O1)OC(=O)CC(C)C
IC50 [1]: > 10000 nM

Compound: COc1ccc2c(c1)[nH]c1c(C)nccc12 [HARMINE]
IC50 (Acetylcholinesterase): 11300 nM | IC50 [7]: 1900 nM

Compound: CN1CCc2cc3c(c4c2C1Cc1ccccc1-4)OCO3 (stereo not drawn) [ROEMERINE]
IC50 [1]: 15000 nM

Compound: CCOc1cc(/C=C2\SC(=S)NC2=O)ccc1OC
IC50 [1]: 60.2 nM

Compound: CCN1/C(=C/C(C)=O)Sc2ccc(O)cc21
inhibition [8]: > 90% | inhibition [9]: > 90%

Compound: Cc1cc(=O)oc2cc3c([N+](=O)[O-])c(O)ccc3cc12
IC50 [5]: 15000 nM

Results, then the compound that gave them:

Ki [2]: 5850 nM
Compound: O=C1c2ccc(O)c(O)c2C(=O)c2c(O)ccc(O)c21 [QUINALIZARIN]

IC50 [3]: 50000 nM
Compound: COc1cc(/C=C2\C(=O)NN(c3ccc(Cl)c(Cl)c3)C2=O)ccc1O

IC50 [1]: 7.9 nM
Compound: N=C1NC(=O)/C(=C/c2ccc3c(c2)CCO3)S1

IC50 [3]: 2500 nM
Compound: COc1cccc(NC(=O)Nc2nnc(-c3ccncc3)s2)c1

IC50 [4]: 220 nM
Compound: COC(=N)c1nc2ccc3ncnc(Nc4ccc(Br)cc4F)c3c2s1
